# Structures can show the parent of a compound that is named as a salt. Where two headings read alike, the source gives them in different places.
# How the values were obtained:
# GABA-uptake = test: In vitro GABA-uptake inhibition, essentially as described by Fjalland, 3H-GABA as substrate; type: biochemical
# Description: GABA-uptake inhibition was measured essentially as described by Fjalland (Acta Pharmacol. et. Toxicol. (1978), 42, 73-76) using 25 mM of 3H-GABA as a substrate.
# [1] = test system: DBA/2 mice (convulsions induced by loud noise; Rotarod); test: Rotarod test versus convulsions induced by loud noise in DBA/2 mice (ratio ED50 Rotarod/ED50 tonic convulsions); type: in vivo, male DBA/2 mice; details: i.p., Rotarod test 25 min after injection, then 14 kHz tone at 111 dB for 30 sec
# Description: The convulsions induced by loud noise in the DBA/2 strain of mice is regarded as a reliable model for evaluating anti-epileptic drug effects, cf. E. N. Petersen et al.: Psychopharmacol. 83 (1984), 240, and A. G. Chapman et al.: Arzmeim.Forsch. 10 (1984), 1261. The Rotarod and Traction tests were used to evaluate the sedative properties of the test drugs.
# Male DBA/2 mice (8±1 g) were used in all experiments. The animals were pretrained on the Rotarod (6 rpm; rod diameter 2.5 cm) for 1 min. The compounds tested were injected intra-peritoneally. Twenty-five min, later the animals underwent a 2 min. test on the Rotarod. The number of failures to stay on the rod was counted. An error rate higher than 10 was assigned the maximum score of 10. Immediately after the Rotarod test, the animals were tested in a Traction test, cf. Psychopharmacol. above. In this test, the animal was required to maintain grasp on a thin rod (diameter 2.5 mm) with the forepaws for five sec. and, within this period of time, to show a traction response (grasping onto the rod with one of the hindlegs). The performance on the test was based on the absence or presence of the traction response with the 5 sec. test period. Finally, after the Traction test, the animals were individually placed in a chamber in which they were exposed for 30 sec. to a 14 kHz sinus tone at 111 dB. During this period of time, the following behaviours were noted: "wild running", clonic convulsions and death.
# The compounds tested were dissolved in distilled water or suspended in 5% chremophore. The injection volume was 0.2 ml/mouse.
# In table 2, below, the ratio ED50 Rotarod/ED50 tonic convulsions is given for the compounds tested. NO-05-0340 is R-N-(4-(2-methylphenyl)-4-(3-methyl-2-thienyl)but-3-en-1-yl)nipecotic acid and NO-05-0356 is R-N-(4-(N-methylpyrrol-2-yl)-4-phenylbut-3-en-1-yl)nipecotic acid.
# GABA uptake = details: orally active; cited from earlier work
# [2] = 3H-GABA substrate, two separate experiments, 3-5 concentrations of test compound, read-out: IC50
# [3] = R3 nipecotic acid, read-out: in vitro test value
SMILES,IC50 (GABA-uptake; [2]) [µM],further results
Cc1ccsc1C(=CCCN1CCC[C@@H](C(=O)O)C1)c1cccc(Cl)c1 (mixture of isomers),0.124,–
"O=C(O)C1=CCCN(CCC=C(c2ccccc2)c2cccs2)C1 (mixture of isomers) [phenyl, thien-2-yl, guvacine, (E/Z), reference compound]",0.217,–
O=C(O)[C@@H]1CCCN(CCC=C(c2ccccc2)c2cccs2)C1 (mixture of isomers) [reference compound],0.236,–
O=C(O)C1CCCN(CCC=C(c2ccccc2)c2cccs2)C1 (racemic) [reference compound],0.47,IC50 (GABA-uptake; [3]): 0.47 µM
"Cc1ccc(C(=CCCN2CCC[C@@H](C(=O)O)C2)c2sccc2C)c(C)c1 [Example 10, R-N-(4-(2,4-dimethylphenyl)-4-(3-methyl-2-thienyl)but-3-en-1-yl)nipecotic acid hydrochloride]",0.19,–
CCCn1cccc1C(=CCCN1CCC[C@@H](C(=O)O)C1)c1ccccc1C [Example 14],0.085,–
Cc1ccccc1C(=CCCN1CCC=C(C(=O)O)C1)c1sccc1C [Example 15],0.117,–
Cc1cc(Cl)ccc1C(=CCCN1CCC[C@@H](C(=O)O)C1)c1sccc1C [Example 16],0.089,–
COc1cccc(C(=CCCN2CCC[C@@H](C(=O)O)C2)c2sccc2C)c1 [Example 18],0.056,–
Cc1ccsc1C(=CCCN1CCC[C@@H](C(=O)O)C1)c1ccccc1F [Example 24],0.217,–
Cc1ccsc1C(=CCCN1CCC[C@@H](C(=O)O)C1)c1cccc(Cl)c1C [Example 49],0.104,–
Cc1cc(Cl)ccc1C(=CCCN1CCC[C@@H](C(=O)O)C1)c1cccn1C [Example 57],0.148,–
CCn1cccc1C(=CCCN1CCC[C@@H](C(=O)O)C1)c1ccccc1C [Example 58],0.049,–
CCn1cccc1C(=CCCN1CCC=C(C(=O)O)C1)c1ccccc1 [Example 59],0.162,–
"Cc1ccccc1C(=CCCN1CCC[C@@H](C(=O)O)C1)c1sccc1C [NO-05-0340, R-N-(4-(2-Methylphenyl)-4-(3-methyl-2-thienyl)but-3-en-1-yl)nipecotic acid]",0.074,ratio ED50 Rotarod/ED50 tonic convulsions [1]: 8; IC50 (GABA-uptake; [3]): 0.074 µM
"Cl.Cn1cccc1C(=CCCN1CCC[C@@H](C(=O)O)C1)c1ccccc1 [NO-05-0356, R-N-(4-(N-Methylpyrrol-2-yl)-4-phenylbut-3-en-1-yl)nipecotic acid hydrochloride]",0.068,ratio ED50 Rotarod/ED50 tonic convulsions [1]: 21
"Cn1cccc1C(=CCCN1CCC=C(C(=O)O)C1)c1ccccc1 [NO-05-0387, N-(4-(N-Methylpyrrol-2-yl)-4-phenylbut-3-en-1-yl)guvacine hydrochloride]",0.126,–
"O=C(O)C1CCCN(CCC=C(c2ccccc2)c2ccccc2)C1 (stereo not drawn) [SK&F 89976A, N-(4,4-diphenyl-3-butenyl)nipicotic acid, reference compound]",–,"ratio ED50 Rotarod/ED50 tonic convulsions [1]: 5; GABA uptake inhibition, oral activity (GABA uptake): orally active inhibitors of GABA uptake"
"O=C(O)C1=CCCN(CCC=C(c2ccccc2)c2ccccc2)C1 [SK&F 100330A, N-(4,4-diphenyl-3-butenyl)guvacine]",–,"GABA uptake inhibition, oral activity (GABA uptake): orally active inhibitors of GABA uptake"
"O=C(O)CC1CCN(CCC=C(c2ccccc2)c2ccccc2)C1 (stereo not drawn) [SK&F 100561, N-(4,4-diphenyl-3-butenyl)-β-homoproline, reference compound]",–,"ratio ED50 Rotarod/ED50 tonic convulsions [1]: 7; GABA uptake inhibition, oral activity (GABA uptake): orally active inhibitors of GABA uptake"
"O=C(O)C1CCCN(CCC=C(c2ccccc2)c2cccs2)C1 (stereo not drawn) [SK&F 100604J, N-(4-sphenyl-4-(2-thienyl)-3-butenyl)nipecotic acid]",–,"GABA uptake inhibition, oral activity (GABA uptake): orally active inhibitors of GABA uptake"
